These are literature values, as cited in patent publication US8609359B2, “Methods for determining the concentration of gamma-hydroxy butyric acid (GHB) in a sample” (Bühlmann Laboratories AG, priority 2009, dated 2013).

One series relates to GHB receptor. The note with it: for GHB-appropriate responding: animals.
The next series addresses GABAB receptor (Homo sapiens, UniProt Q9UBS5).
The conditions of series [1]: effects can resolve quite suddenly.
The conditions of series [2]: in 1 ml of water.
The conditions of series [3]: when consumed with food.

Sequence of GABAB receptor (Q9UBS5 15-961 limits assumed): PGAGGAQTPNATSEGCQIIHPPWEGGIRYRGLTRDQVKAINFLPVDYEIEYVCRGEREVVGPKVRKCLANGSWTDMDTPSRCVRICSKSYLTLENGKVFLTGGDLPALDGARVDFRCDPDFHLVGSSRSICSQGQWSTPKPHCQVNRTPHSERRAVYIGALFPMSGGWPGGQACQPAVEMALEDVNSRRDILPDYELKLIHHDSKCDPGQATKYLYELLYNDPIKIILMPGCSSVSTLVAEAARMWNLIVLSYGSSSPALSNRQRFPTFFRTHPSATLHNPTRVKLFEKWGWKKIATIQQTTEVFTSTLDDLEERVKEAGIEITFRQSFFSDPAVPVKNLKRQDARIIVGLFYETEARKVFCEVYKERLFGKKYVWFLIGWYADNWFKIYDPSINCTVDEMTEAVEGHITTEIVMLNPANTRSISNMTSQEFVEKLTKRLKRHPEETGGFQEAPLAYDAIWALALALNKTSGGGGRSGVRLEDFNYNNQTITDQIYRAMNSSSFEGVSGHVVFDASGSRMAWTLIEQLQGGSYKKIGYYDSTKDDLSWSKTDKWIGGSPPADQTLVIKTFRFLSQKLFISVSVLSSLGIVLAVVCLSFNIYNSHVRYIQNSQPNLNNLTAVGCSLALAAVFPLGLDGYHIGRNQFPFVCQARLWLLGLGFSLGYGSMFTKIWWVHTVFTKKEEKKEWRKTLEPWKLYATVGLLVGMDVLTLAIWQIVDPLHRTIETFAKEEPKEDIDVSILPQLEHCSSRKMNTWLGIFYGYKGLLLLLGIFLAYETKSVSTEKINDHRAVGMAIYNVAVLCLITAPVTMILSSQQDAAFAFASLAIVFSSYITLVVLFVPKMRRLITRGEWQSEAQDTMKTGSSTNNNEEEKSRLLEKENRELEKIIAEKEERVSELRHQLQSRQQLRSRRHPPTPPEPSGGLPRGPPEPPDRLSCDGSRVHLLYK
Sequence of GABAB receptor (O75899 42-941 partner): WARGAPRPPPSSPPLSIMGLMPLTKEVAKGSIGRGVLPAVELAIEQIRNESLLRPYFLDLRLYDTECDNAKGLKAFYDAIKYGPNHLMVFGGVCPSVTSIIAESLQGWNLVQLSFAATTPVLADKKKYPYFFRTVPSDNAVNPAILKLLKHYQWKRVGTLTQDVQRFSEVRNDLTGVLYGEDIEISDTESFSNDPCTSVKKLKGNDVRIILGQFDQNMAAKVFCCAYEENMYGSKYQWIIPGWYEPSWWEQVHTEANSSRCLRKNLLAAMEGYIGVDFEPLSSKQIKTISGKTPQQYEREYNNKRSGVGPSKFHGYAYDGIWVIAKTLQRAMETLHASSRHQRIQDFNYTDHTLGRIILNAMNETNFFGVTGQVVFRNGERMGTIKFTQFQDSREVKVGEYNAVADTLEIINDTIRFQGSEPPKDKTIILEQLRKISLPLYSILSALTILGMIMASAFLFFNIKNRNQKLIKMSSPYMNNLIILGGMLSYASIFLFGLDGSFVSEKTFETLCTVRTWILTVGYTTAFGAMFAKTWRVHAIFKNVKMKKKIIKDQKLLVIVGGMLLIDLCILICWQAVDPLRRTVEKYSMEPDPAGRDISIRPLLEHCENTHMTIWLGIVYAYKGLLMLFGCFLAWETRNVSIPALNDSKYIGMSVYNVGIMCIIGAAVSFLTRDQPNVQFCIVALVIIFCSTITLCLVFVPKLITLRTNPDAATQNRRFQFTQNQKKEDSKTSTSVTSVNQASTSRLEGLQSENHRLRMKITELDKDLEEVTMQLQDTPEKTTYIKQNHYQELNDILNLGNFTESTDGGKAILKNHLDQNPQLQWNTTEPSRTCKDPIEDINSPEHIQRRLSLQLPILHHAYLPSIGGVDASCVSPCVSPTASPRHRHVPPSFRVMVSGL

With `O=C(O)CCC(O)Cc1ccc(Cl)cc1` (stereo not shown) [4-(p-chlorobenzyl)-GHB], in the series on GHB receptor, the convulsions in animals result was “cause convulsions in animals” and the GHB-appropriate responding result is “do not produce GHB-appropriate responding”.
Regarding `O=C(O)CCCO` [GHB, 4-hydroxybutanoic acid], the “affinity for GABAB receptor” value on GABAB receptor is given as “relatively weak affinity”. In series [1], the “duration of the effects” value was “about four”.
For the compound `O=C([O-])CCCO.[Na+]` [sodium GHB], in series [2], the “amount of sodium GHB that can be dissolved” value is “More than 1 g”. In series [3], the bioavailability entry is “considerably reduced”.
With `O=C(O)/C=C/CO` [trans-4-hydroxycrotonic acid], the GHB-appropriate responding result in the series on GHB receptor is given as “do not produce GHB-appropriate responding”.
